Data as given in patent US11007136B2, “Cosmetic composition for wrinkle reduction containing gypenoside isolated from Gynostemma pentaphyllum” (CELLTRION INC., priority 2015, dated 2021).

Columns and labels:
[1] = Titer stability of UL4 and UL5 within formulations (HPLC); type: physicochemical; settings: for content stability Result: over 12 weeks
Description: As shown in Formulation Examples 1, 2 and 3, cosmetic compositions of a high viscosity emulsified formulation, a low viscosity emulsified formulation and a solubilized formulation, respectively comprising 0.2% of the Gynostemma pentaphyllum gypenoside fraction, were stored under a condition of 4 CC, 30 CC, 45° C. and sunlight for 12 weeks and changes with passage of time (% compared to an initial content) in the gypenosides UL4 and UL5, which were index ingredients for quantification out of the Gynostemma pentaphyllum gypenoside ingredients, were observed through an HPLC analysis, and results thereof were indicated in Tables 10 to 12.

[2] = tested on: human dermal fibroblast neonatal; assay: Procollagen production (collagen synthesis promotion), ELISA kit; type: cell-based; settings: 1 and 5 μg/ml, 48 h, versus positive control NAG at the same concentration, FIG. 3
Description: A human dermal fibroblast neonatal (Cascade Co.) was inoculated into a 24-well microplate (5×10^4 cells/well) by using a medium, in which Dulbeco's Modified Eagle's Medium (DMEM) was supplemented with 10% fetal bovine serum, thus being cultured under a condition of 37° C. and 5% CO2 for 24 hours. Then, the same was replaced with a serum-free DMEM medium and cultured for 24 hours, after which an appropriate amount of a sample fluid was treated so that a final concentration of each test compound could reach 1 μg/ml and 5 μg/ml. After being cultured for 48 hours, a cell culture fluid was collected and then an amount of procollagen was measured by using a collagen measurement kit of Takara Company (Takara Shuzo Co., Ltd.). First of all, the collected cell culture fluid was injected into a 96-well microplate, to which a primary collagen antibody was evenly applied, such that an antigen-antibody reaction could occur at 37° C. for three hours. The cell culture fluid was removed from the well and washed four times with PBS. A color causing material was injected into each well, after which a reaction took place at a room temperature for 15 minutes, such that 1 N sulfuric acid solution was added thereto, thus stopping the reaction. An optical density was measured at a wavelength of 450 nm by means of a spectrophotometer. […]

[3] = Stability of the fraction in raw material solution (HPLC content of UL4, UL5); type: physicochemical; settings: for content stability Results: over 12 weeks
Description: A solution obtained by dissolving powder of the Gynostemma pentaphyllum gypenoside fraction at a concentration of 4% in 100 mL of a mixed solvent of propylene glycol, glycerin and distilled water at a ratio of 5:3:2 was used to identify stability of the Gynostemma pentaphyllum gypenoside fraction in a raw material state. While the solution was being stored under a condition of 4° C., 30° C. and 45° C. and sunlight for 12 weeks, changes with passage of time (% compared to an initial content) in the gypenosides UL4 and UL5, which were index ingredients for quantification out of the Gynostemma pentaphyllum gypenosides, were observed through an HPLC analysis and results thereof were indicated in Table 3.

CC(C)=CC1C[C@](O)([C@H]2CC[C@]3(C)[C@@H]2CC[C@@H]2[C@@]4(C=O)CC[C@H](O[C@@H]5OC[C@H](O)[C@H](O[C@@H]6O[C@H](CO)[C@@H](O)[C@H](O)[C@H]6O)[C@H]5O[C@@H]5O[C@@H](C)[C@H](O)[C@@H](O)[C@H]5O)C(C)(C)[C@@H]4CC[C@]23C)[C@H](O)O1 (stereo partly drawn) [Gypenoside UL5, (23ξ)-3β,20β,21α-trihydroxy-19-oxo-21,23-epoxy-dammar-24-ene-3-O-[α-L-rhamnopyranosyl (1→2)][β-D-glucopyranosyl (1→3)]-α-L-arabinopyranoside]
content, % compared to an initial content ([1]; High viscosity emulsified formulation, 4° C., 1 week): 100.6%
content, % compared to an initial content ([1]; High viscosity emulsified formulation, 4° C., 2 weeks): 95.1%
content, % compared to an initial content ([1]; High viscosity emulsified formulation, 4° C., 4 weeks): 104.4%
content, % compared to an initial content ([1]; High viscosity emulsified formulation, 4° C., 8 weeks): 104.2%
content, % compared to an initial content ([1]; High viscosity emulsified formulation, 4° C., 12 weeks): 106.9%
content stability Result ([1]; High viscosity emulsified formulation, 4° C.): Stable
content, % compared to an initial content ([1]; High viscosity emulsified formulation, 30° C., 1 week): 103.8%
content, % compared to an initial content ([1]; High viscosity emulsified formulation, 30° C., 2 weeks): 105.7%
content, % compared to an initial content ([1]; High viscosity emulsified formulation, 30° C., 4 weeks): 108.2%
content, % compared to an initial content ([1]; High viscosity emulsified formulation, 30° C., 8 weeks): 103.4%
content, % compared to an initial content ([1]; High viscosity emulsified formulation, 30° C., 12 weeks): 104.1%
content stability Result ([1]; High viscosity emulsified formulation, 30° C.): Stable
content, % compared to an initial content ([1]; High viscosity emulsified formulation, 45° C., 1 week): 102.6%
content, % compared to an initial content ([1]; High viscosity emulsified formulation, 45° C., 2 weeks): 104.6%
content, % compared to an initial content ([1]; High viscosity emulsified formulation, 45° C., 4 weeks): 102.1%
content, % compared to an initial content ([1]; High viscosity emulsified formulation, 45° C., 8 weeks): 101.8%
content, % compared to an initial content ([1]; High viscosity emulsified formulation, 45° C., 12 weeks): 103.1%
content stability Result ([1]; High viscosity emulsified formulation, 45° C.): Stable
content, % compared to an initial content ([1]; High viscosity emulsified formulation, Sunlight, 1 week): 101.8%
content, % compared to an initial content ([1]; High viscosity emulsified formulation, Sunlight, 2 weeks): 99.2%
content, % compared to an initial content ([1]; High viscosity emulsified formulation, Sunlight, 4 weeks): 103%
content, % compared to an initial content ([1]; High viscosity emulsified formulation, Sunlight, 8 weeks): 101.1%
content, % compared to an initial content ([1]; High viscosity emulsified formulation, Sunlight, 12 weeks): 104.9%
content stability Result ([1]; High viscosity emulsified formulation, Sunlight): Stable
content, % compared to an initial content ([1]; Low viscosity emulsified formulation, 4° C., 1 week): 98.8%
content, % compared to an initial content ([1]; Low viscosity emulsified formulation, 4° C., 2 weeks): 100.4%
content, % compared to an initial content ([1]; Low viscosity emulsified formulation, 4° C., 4 weeks): 102.8%
content, % compared to an initial content ([1]; Low viscosity emulsified formulation, 4° C., 8 weeks): 100.2%
content, % compared to an initial content ([1]; Low viscosity emulsified formulation, 4° C., 12 weeks): 95.2%
content stability Result ([1]; Low viscosity emulsified formulation, 4° C.): Stable
content, % compared to an initial content ([1]; Low viscosity emulsified formulation, 30° C., 1 week): 103.3%
content, % compared to an initial content ([1]; Low viscosity emulsified formulation, 30° C., 2 weeks): 103.9%
content, % compared to an initial content ([1]; Low viscosity emulsified formulation, 30° C., 4 weeks): 102.2%
content, % compared to an initial content ([1]; Low viscosity emulsified formulation, 30° C., 8 weeks): 105.6%
content, % compared to an initial content ([1]; Low viscosity emulsified formulation, 30° C., 12 weeks): 105%
content stability Result ([1]; Low viscosity emulsified formulation, 30° C.): Stable
content, % compared to an initial content ([1]; Low viscosity emulsified formulation, 45° C., 1 week): 103.5%
content, % compared to an initial content ([1]; Low viscosity emulsified formulation, 45° C., 2 weeks): 102%
content, % compared to an initial content ([1]; Low viscosity emulsified formulation, 45° C., 4 weeks): 104.8%
content, % compared to an initial content ([1]; Low viscosity emulsified formulation, 45° C., 8 weeks): 94.2%
content, % compared to an initial content ([1]; Low viscosity emulsified formulation, 45° C., 12 weeks): 98.3%
content stability Result ([1]; Low viscosity emulsified formulation, 45° C.): Stable
content, % compared to an initial content ([1]; Low viscosity emulsified formulation, Sunlight, 1 week): 94.4%
content, % compared to an initial content ([1]; Low viscosity emulsified formulation, Sunlight, 2 weeks): 98.1%
content, % compared to an initial content ([1]; Low viscosity emulsified formulation, Sunlight, 4 weeks): 101.6%
content, % compared to an initial content ([1]; Low viscosity emulsified formulation, Sunlight, 8 weeks): 101%
content, % compared to an initial content ([1]; Low viscosity emulsified formulation, Sunlight, 12 weeks): 102.6%
content stability Result ([1]; Low viscosity emulsified formulation, Sunlight): Stable
content, % compared to an initial content ([1]; Solubilized formulation, 4° C., 1 week): 98.8%
content, % compared to an initial content ([1]; Solubilized formulation, 4° C., 2 weeks): 95.7%
content, % compared to an initial content ([1]; Solubilized formulation, 4° C., 4 weeks): 105.1%
content, % compared to an initial content ([1]; Solubilized formulation, 4° C., 8 weeks): 102.8%
content, % compared to an initial content ([1]; Solubilized formulation, 4° C., 12 weeks): 102.3%
content stability Result ([1]; Solubilized formulation, 4° C.): Stable
content, % compared to an initial content ([1]; Solubilized formulation, 30° C., 1 week): 100%
content, % compared to an initial content ([1]; Solubilized formulation, 30° C., 2 weeks): 105.1%
content, % compared to an initial content ([1]; Solubilized formulation, 30° C., 4 weeks): 108.6%
content, % compared to an initial content ([1]; Solubilized formulation, 30° C., 8 weeks): 103.7%
content, % compared to an initial content ([1]; Solubilized formulation, 30° C., 12 weeks): 104.9%
content stability Result ([1]; Solubilized formulation, 30° C.): Stable
content, % compared to an initial content ([1]; Solubilized formulation, 45° C., 1 week): 100.3%
content, % compared to an initial content ([1]; Solubilized formulation, 45° C., 2 weeks): 101.4%
content, % compared to an initial content ([1]; Solubilized formulation, 45° C., 4 weeks): 97.2%
content, % compared to an initial content ([1]; Solubilized formulation, 45° C., 8 weeks): 102.1%
content, % compared to an initial content ([1]; Solubilized formulation, 45° C., 12 weeks): 95.6%
content stability Result ([1]; Solubilized formulation, 45° C.): Stable
content, % compared to an initial content ([1]; Solubilized formulation, Sunlight, 1 week): 97.9%
content, % compared to an initial content ([1]; Solubilized formulation, Sunlight, 2 weeks): 95.9%
content, % compared to an initial content ([1]; Solubilized formulation, Sunlight, 4 weeks): 104.9%
content, % compared to an initial content ([1]; Solubilized formulation, Sunlight, 8 weeks): 103.5%
content, % compared to an initial content ([1]; Solubilized formulation, Sunlight, 12 weeks): 103.3%
content stability Result ([1]; Solubilized formulation, Sunlight): Stable
procollagen-producing effect compared with NAG [2]: the same or larger amount of procollagen
content, % compared to an initial content ([3]; 4° C., 1 week): 98.8%
content, % compared to an initial content ([3]; 4° C., 2 weeks): 101.3%
content, % compared to an initial content ([3]; 4° C., 4 weeks): 97%
content, % compared to an initial content ([3]; 4° C., 8 weeks): 97.9%
content, % compared to an initial content ([3]; 4° C., 12 weeks): 98.1%
content stability Results ([3]; 4° C.): Stable
content, % compared to an initial content ([3]; 30° C., 1 week): 101.8%
content, % compared to an initial content ([3]; 30° C., 2 weeks): 98.2%
content, % compared to an initial content ([3]; 30° C., 4 weeks): 99%
content, % compared to an initial content ([3]; 30° C., 8 weeks): 101.2%
content, % compared to an initial content ([3]; 30° C., 12 weeks): 102.9%
content stability Results ([3]; 30° C.): Stable
content, % compared to an initial content ([3]; 45° C., 1 week): 97.6%
content, % compared to an initial content ([3]; 45° C., 2 weeks): 97.5%
content, % compared to an initial content ([3]; 45° C., 4 weeks): 96.9%
content, % compared to an initial content ([3]; 45° C., 8 weeks): 99.2%
content, % compared to an initial content ([3]; 45° C., 12 weeks): 103.8%
content stability Results ([3]; 45° C.): Stable
content, % compared to an initial content ([3]; Sunlight, 1 week): 101.1%
content, % compared to an initial content ([3]; Sunlight, 2 weeks): 98.4%
content, % compared to an initial content ([3]; Sunlight, 4 weeks): 98.8%
content, % compared to an initial content ([3]; Sunlight, 8 weeks): 97.2%
content, % compared to an initial content ([3]; Sunlight, 12 weeks): 97.8%
content stability Results ([3]; Sunlight): Stable
